Assay [1] has as its target T1, human Keap1 Kelch domain (A321-T609) (Homo sapiens, UniProt Q14145).
T1 construct: human Keap1 Kelch domain (A321-T609) fused with N-terminal 6x His-tag; 6xHis (N); made in house
Put plainly: Surface plasmon resonance (SPR) direct binding assay, immobilised Keap1 Kelch domain. The conditions noted are these: Table 1; for Kd: geometric mean ± sd of at least 3 independent repeats unless stated, 20°C; for koff / kon: single cycle kinetics, 1:1 Langmuir model. An excerpt: (§1) We based the design of our Nrf2-like cyclic peptides around the amino acid sequence of the ETGE motif (namely 12-mer ^73[…]^84L) and SAR studies reported in the literature.[9,10,12,14] The […] motif is known to adopt a beta-turn conformation upon binding to Keap1. Residues Q73-Q75 and L85 stabilise the bound conformation, L76-D77 and E79-G81 bind deep into the pocket with E79 and E82 forming electrostatic interactions with Keap1 and D77 and T80 stabilising the beta-turn via H-bonds with E78 not contributing to the binding. […] The ability of the cyclic peptides to bind to the Kelch domain of Keap1 was evaluated using surface plasma resonance (SPR), where the Kelch domain is immobilised onto a SPR sensor chip. Additionally, we assessed the ability of the peptides to inhibit the PPI between Nrf2 and the Kelch domain of Keap1 using a time-resolved FRET (TR-FRET) assay. Here, the IC50 for inhibition of the interaction between the human Keap1 Kelch domain and an Nrf2-ETGE peptide is measured.
(§2) Surface Plasmon Resonance (SPR)
(§3) Peptide affinities to the Kelch domain of Keap1 is determined in a direct binding assay using 8K surface plasmon resonance (SPR) biosensor (Cytiva) at 20°C. Immobilization of Keap1 Kelch domain on a CM5 sensor chip (Cytiva) is performed using standard amine coupling procedure. The surface is washed with 10mM NaOH, 1M NaCl before activated with EDC/NHS (Cytiva), followed by immobilization of human Keap1 Kelch domain (A321-T609) fused with N-terminal 6x His-tag7 (in 10 mM MES, pH=6.4).
(§4) Finally, the surface is deactivated by Ethanolamine. Immobilization levels are typically 5000-6000 RU.
(§5) The reference spot is treated as described, omitting the injection of Keap1. Compound concentration series are injected over the immobilized protein in increasing concentrations using single cycle kinetics (SCK) in running buffer (10 mM HEPES, 150 mM NaCl, 0.05% Tween20, 1 mM TCEP, pH 7.4). A 1:1 Langmuir interaction model is fitted to the experimental traces, enabling determination of kon, koff and […]
(§6) In the time-resolved Förster resonance energy transfer (TR-FRET) assay8 the IC50 of inhibitors which […]
(§7) are determined. The TR-FRET is measured between a Tb-labelled mAb (Anti—6-His, Tb cryptate Gold, CisBio 61H12TLB) that binds to Keap 1 Kelch domain and d2-labelled SA-biotin-peptide.
(§8) The assay was performed in 384-well white low-volume, medium binding plates (Greiner Bio One, Austria) in 20 mM HEPES pH 7.5, 150 mM NaCl, 2 mM GSH (Sigma-Aldrich, USA),1mM EDTA (Sigma-Aldrich, USA), and 0.01% Pluronic F127 (MilliporeSigma, USA), with a final reaction volume of 10 µL.
(§9) To determine the ability of synthesized peptide to inhibit PPI between the Keap1 Kelch domain and Nrf2, 1nM purified human Keap1 Kelch domain (A321-T609) fused with N-terminal 6x His-tag, 5 nM biotinylated Nrf2 peptide ([…], Genescript, USA), d2-labeled streptavidin (Revvity, USA), and […] anti-His monoclonal antibody tagged with terbium cryptate (Revvity, USA), were incubated in the presence of varying concentrations of investigated peptides for 3 h at room […]
(§10) 7 Li X, Zhang D, Hannink M, Beamer LJ. Crystallization and initial crystallographic analysis of the Kelch domain from human Keap1. Acta
(§11) 8 S. Lee, D. Ali Abed, L. J. Beamer, L. Hu, Development of a Homogeneous Time-Resolved Fluorescence Resonance Energy Transfer (TR-
(In general: SPR reads the build-up and loss of mass on a sensor chip optically.)

In assay [2] the target is T2, interaction between the human Keap1 Kelch domain and an Nrf2-ETGE peptide (Homo sapiens, UniProt Q14145).
T2 construct: 1nM purified human Keap1 Kelch domain (A321-T609) fused with N-terminal 6x His-tag; made in house
As to the kind of experiment: Keap1-Nrf2 TR-FRET (HTRF) assay. Type of assay: binding. The conditions noted are these: Table 1; geometric mean ± sd of at least 3 independent repeats unless stated; read-out: TR-FRET IC50.
Text: as §1, §2, §3, §4, §5, §6, §7, §8, §9, §10, §11
Following the incubation, the PHERAstar FSX […] microplate reader was used to measure the acceptor and donor emissions at 665 nm and 620 nm, respectively. The acceptor/donor ratio was used to calculate relative energy transfer. Data was normalized by two-point normalization using neutral and inhibitor controls (neutral control: DMSO, inhibitor control: 0.1nM 2-[[4-[carboxymethyl-(4-methoxyphenyl)sulfonylamino]naphthale n-1-yl]-(4-methoxyphenyl)sulfonylamino]acetic acid; […]
parameter logistic fit and IC50 values were calculated using Genedata screener software (Genedata, […]
(TR-FRET usually uses a lanthanide donor and a delayed reading to cut background.)

*1 amine or outer side, *2 acyl side, *3 side chain or, on linkers, in order; H or OH if unused. Where a SMILES comes first, the peptide text is derived from it. Bridges are numbered along the chain shown (N, C = ends). X1 = CN(CC(=O)O)c1nc(CC[*:1])cc(CC[*:2])n1; mXylylene = c1cc(C[*:1])cc(C[*:2])c1; CH2COCH2 = O=C(C[*:1])C[*:2]; CH2 = C([*:1])[*:2]

T2 sequence (Q14145 321-609): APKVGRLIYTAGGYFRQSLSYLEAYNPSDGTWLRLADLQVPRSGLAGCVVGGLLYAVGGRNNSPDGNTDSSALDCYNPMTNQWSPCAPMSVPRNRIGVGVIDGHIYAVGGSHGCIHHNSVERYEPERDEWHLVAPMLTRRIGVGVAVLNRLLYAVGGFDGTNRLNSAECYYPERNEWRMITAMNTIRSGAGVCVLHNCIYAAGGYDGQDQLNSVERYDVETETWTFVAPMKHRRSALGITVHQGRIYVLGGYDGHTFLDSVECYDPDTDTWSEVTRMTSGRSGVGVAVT
T1 sequence (Q14145 321-609): as above

A word on the Kd: it is the free concentration of one partner at which half of the binding sites on the other are occupied at equilibrium, for simple one-to-one binding. Higher therefore signals lower affinity. One may read the koff as a measure of how fast the partners let go of each other. Read a low koff as a long-lived complex. The kon is the rate constant with which the complex forms. A high value points to faster complex formation. As usually defined, the IC50 is the midpoint of a concentration-inhibition curve. In assay [1], `CC(=O)N[C@@H](CC(C)C)C(=O)N[C@@H](CCC(N)=O)C(=O)N[C@H]1CSCC(=O)CSC[C@@H](C(=O)N[C@@H](CC(C)C)C(N)=O)NC(=O)[C@H](CCC(=O)O)NC(=O)CNC(=O)[C@H]([C@@H](C)O)NC(=O)[C@H](CCC(=O)O)NC(=O)[C@@H]2CCCN2C(=O)[C@H](CC(=O)O)NC1=O` [Peptide P2-B] (Ac-LQCDPETGECL-NH2; linker 3-10 via CH2COCH2) showed a Kd of 97 ± 1.4 nM, a koff of 0.028 s⁻¹ and a kon of 350000 M⁻¹ s⁻¹. Further, the IC50 in assay [2] came to 9.8 ± 1.2 nM.

`CC(=O)N[C@@H](CS)C(=O)N[C@@H](CC(C)C)C(=O)N[C@@H](CCC(N)=O)C(=O)N[C@@H](CC(C)C)C(=O)N[C@@H](CC(=O)O)C(=O)N1CCC[C@H]1C(=O)N[C@@H](CCC(=O)O)C(=O)N[C@H](C(=O)NCC(=O)N[C@@H](CCC(=O)O)C(=O)N[C@@H](CS)C(=O)N[C@@H](CC(C)C)C(N)=O)[C@@H](C)O` [Peptide P3] (Ac-CLQLDPETGECL-NH2): in assay [1], the Kd was 19 ± 1.8 nM, the koff is 0.0049 s⁻¹ and the kon was found to be 180000 M⁻¹ s⁻¹. The half-maximal inhibitory concentration (IC50) in assay [2] stood at 5 ± 1.5 nM.

Consider `CC(=O)N[C@H]1CSCCc2cc(nc(N(C)CC(=O)O)n2)CCSC[C@@H](C(=O)N[C@@H](CC(C)C)C(N)=O)NC(=O)[C@H](CCC(=O)O)NC(=O)CNC(=O)[C@H]([C@@H](C)O)NC(=O)[C@H](CCC(=O)O)NC(=O)[C@@H]2CCCN2C(=O)[C@H](CC(=O)O)NC(=O)[C@H](CC(C)C)NC(=O)[C@H](CCC(N)=O)NC(=O)[C@H](CC(C)C)NC1=O` [Peptide P3-D] (Ac-CLQLDPETGECL-NH2; linker 1-11 via X1), for which, in assay [1], the Kd amounted to 22 ± 1.3 nM, the koff was 0.0028 s⁻¹ and the kon was 140000 M⁻¹ s⁻¹. In addition, in assay [2], the IC50 is 2.4 ± 1.3 nM.

In assay [1], `CC(=O)N[C@H]1Cn2cc(nn2)-c2cc(C(=O)O)cc(c2)-c2cn(nn2)C[C@@H](C(=O)N[C@@H](CC(C)C)C(N)=O)NC(=O)[C@H](CCC(=O)O)NC(=O)CNC(=O)[C@H]([C@@H](C)O)NC(=O)[C@H](CCC(=O)O)NC(=O)[C@@H]2CCCN2C(=O)[C@H](CC(=O)O)NC(=O)[C@H](CC(C)C)NC(=O)[C@H](CCC(N)=O)NC(=O)[C@H](CC(C)C)NC1=O` [Peptide P3Aza-E] gave a Kd of 34 ± 1.3 nM, a koff of 0.0054 s⁻¹ and a kon of 170000 M⁻¹ s⁻¹. The IC50 in assay [2] was 4 ± 1.4 nM.

Regarding `CC(=O)N[C@@H](CS)C(=O)N[C@@H](CCC(N)=O)C(=O)N[C@@H](CC(C)C)C(=O)N[C@@H](CC(=O)O)C(=O)N1CCC[C@H]1C(=O)N[C@@H](CCC(=O)O)C(=O)N[C@H](C(=O)NCC(=O)N[C@@H](CCC(=O)O)C(=O)N[C@@H](CS)C(=O)N[C@@H](CC(C)C)C(N)=O)[C@@H](C)O` [Peptide P1] (Ac-CQLDPETGECL-NH2), in assay [1], the affinity, expressed as Kd, was 20 ± 1.2 nM; the koff is 0.0014 s⁻¹; the kon is 86000 M⁻¹ s⁻¹. Further, the IC50 in assay [2] was determined as 4.9 ± 1.1 nM.

In assay [1], `CC(=O)N[C@@H](CC(C)C)C(=O)N[C@@H](CCC(N)=O)C(=O)N[C@H]1CSCc2cccc(c2)CSC[C@@H](C(=O)N[C@@H](CC(C)C)C(N)=O)NC(=O)[C@H](CCC(=O)O)NC(=O)CNC(=O)[C@H]([C@@H](C)O)NC(=O)[C@H](CCC(=O)O)NC(=O)[C@@H]2CCCN2C(=O)[C@H](CC(=O)O)NC1=O` [Peptide P2-C] (Ac-LQCDPETGECL-NH2; linker 3-10 via mXylylene) showed a Kd of 36 ± 1.8 nM, a koff of 0.013 s⁻¹ and a kon of 500000 M⁻¹ s⁻¹. Also, the IC50 in assay [2] was found to be 5.6 ± 1.1 nM.

On to `CC(=O)N[C@@H](CC(C)C)C(=O)N[C@@H](CCC(N)=O)C(=O)N[C@H]1CSCSC[C@@H](C(=O)N[C@@H](CC(C)C)C(N)=O)NC(=O)[C@H](CCC(=O)O)NC(=O)CNC(=O)[C@H]([C@@H](C)O)NC(=O)[C@H](CCC(=O)O)NC(=O)[C@@H]2CCCN2C(=O)[C@H](CC(=O)O)NC1=O` [Peptide P2-A] (Ac-LQCDPETGECL-NH2; linker 3-10 via CH2), for which, in assay [1], binding was characterised by a dissociation constant (Kd) of 70 ± 1 nM, the koff is 0.015 s⁻¹ and the kon is 210000 M⁻¹ s⁻¹. In addition, in assay [2], the IC50 was found to be 8.3 ± 1.1 nM.

In assay [1], `CC(=O)N[C@@H](CC(C)C)C(=O)N[C@@H](CCC(N)=O)C(=O)N[C@H]1CSCCc2cc(nc(N(C)CC(=O)O)n2)CCSC[C@@H](C(=O)N[C@@H](CC(C)C)C(N)=O)NC(=O)[C@H](CCC(=O)O)NC(=O)CNC(=O)[C@H]([C@@H](C)O)NC(=O)[C@H](CCC(=O)O)NC(=O)[C@@H]2CCCN2C(=O)[C@H](CC(=O)O)NC1=O` [Peptide P2-D] (Ac-LQCDPETGECL-NH2; linker 3-10 via X1) gave a Kd of 54 ± 1.2 nM, a koff of 0.0083 s⁻¹ and a kon of 160000 M⁻¹ s⁻¹. For the same molecule, in assay [2], the IC50 was found to be 4.8 ± 1.5 nM.

In assay [1], `CC(=O)N[C@H]1CSCCc2cc(nc(N(C)CC(=O)O)n2)CCSC[C@@H](C(=O)N[C@@H](CC(C)C)C(N)=O)NC(=O)[C@H](CCC(=O)O)NC(=O)CNC(=O)[C@H]([C@@H](C)O)NC(=O)[C@H](CCC(=O)O)NC(=O)[C@@H]2CCCN2C(=O)[C@H](CC(=O)O)NC(=O)[C@H](CC(C)C)NC(=O)[C@H](CCC(N)=O)NC1=O` [Peptide P1-D] (Ac-CQLDPETGECL-NH2; linker 1-10 via X1) had a Kd of 25 ± 1.3 nM, a koff of 0.0047 s⁻¹ and a kon of 200000 M⁻¹ s⁻¹. Also, the IC50 in assay [2] was 2.9 ± 1.4 nM.

`CC(=O)N[C@H]1CSCc2cccc(c2)CSC[C@@H](C(=O)N[C@@H](CC(C)C)C(N)=O)NC(=O)[C@H](CCC(=O)O)NC(=O)CNC(=O)[C@H]([C@@H](C)O)NC(=O)[C@H](CCC(=O)O)NC(=O)[C@@H]2CCCN2C(=O)[C@H](CC(=O)O)NC(=O)[C@H](CC(C)C)NC(=O)[C@H](CCC(N)=O)NC1=O` [Peptide P1-C] (Ac-CQLDPETGECL-NH2; linker 1-10 via mXylylene): in assay [1], the Kd came out at 17 ± 1.2 nM, the koff was 0.0078 s⁻¹ and the kon worked out at 470000 M⁻¹ s⁻¹. Moreover, in assay [2], the IC50 was found to be 2.1 nM.

With `CC(=O)N[C@H]1CSCSC[C@@H](C(=O)N[C@@H](CC(C)C)C(N)=O)NC(=O)[C@H](CCC(=O)O)NC(=O)CNC(=O)[C@H]([C@@H](C)O)NC(=O)[C@H](CCC(=O)O)NC(=O)[C@@H]2CCCN2C(=O)[C@H](CC(=O)O)NC(=O)[C@H](CC(C)C)NC(=O)[C@H](CCC(N)=O)NC1=O` [Peptide P1-A] (Ac-CQLDPETGECL-NH2; linker 1-10 via CH2), in assay [1], the Kd worked out at 19 ± 1.4 nM, the koff is 0.0073 s⁻¹ and the kon was 480000 M⁻¹ s⁻¹. In assay [2], the IC50 stood at 2.9 ± 1.7 nM.

Molecule `CC(=O)N[C@@H](CC(C)C)C(=O)N[C@@H](CCC(N)=O)C(=O)N[C@@H](CS)C(=O)N[C@@H](CC(=O)O)C(=O)N1CCC[C@H]1C(=O)N[C@@H](CCC(=O)O)C(=O)N[C@H](C(=O)NCC(=O)N[C@@H](CCC(=O)O)C(=O)N[C@@H](CS)C(=O)N[C@@H](CC(C)C)C(N)=O)[C@@H](C)O` [Peptide P2] (Ac-LQCDPETGECL-NH2) yielded a Kd in assay [1] of 75 nM.

Values taken from article PMC10566475, “A cell-active cyclic peptide targeting the Nrf2/Keap1 protein–protein interaction” (Chemical Science, 2023).
